What was measured:
[1] = 298.15 K, 101.33 kPa, Liquid; for speed of sound: Sing-around technique in a fixed-path interferometer; for mass density: Vibrating tube method
[2] = mn = molality of the nth substance listed, in mol/kg; conditions: 298.15 K, 101 kPa, Liquid; for speed of sound: Sing-around technique in a fixed-path interferometer; for mass density: Vibrating tube method

CCOC(=O)C(C)O (racemic) [DL-ethyl lactate]
[1]
Conditions	mass density [kg/m3]	speed of sound [m/s]
–	1028.37	1279.7

O=Cc1ccco1 [2-furaldehyde]
[1]
Conditions	mass density [kg/m3]	speed of sound [m/s]
–	1154.81	1440.2

OCc1ccco1 [2-hydroxymethylfuran]
[1]
Conditions	mass density [kg/m3]	speed of sound [m/s]
–	1130.27	1449.8

OCC1CCCO1 (centres undefined) [2-tetrahydrofurylmethanol]
[1]
Conditions	mass density [kg/m3]	speed of sound [m/s]
–	1050.75	1485.2

Cc1ccc(C=O)o1 [5-methylfurfural]
[1]
Conditions	mass density [kg/m3]	speed of sound [m/s]
–	1103.2	1447

CCCCOC(=O)C(C)O (centres undefined) [butyl 2-hydroxypropanoate]
[1]
Conditions	mass density [kg/m3]	speed of sound [m/s]
–	977.283	1285

CCCCOC(=O)CCC(C)=O [butyl levulinate]
[1]
Conditions	mass density [kg/m3]	speed of sound [m/s]
–	969.935	1341.3

CCOC(=O)CCC(C)=O [ethyl levulinate]
[1]
Conditions	mass density [kg/m3]	speed of sound [m/s]
–	1007.54	1351.2

CCOC(=O)CCC(C)=O [ethyl levulinate] + O
[2]
Conditions	mass density [kg/m3]	speed of sound [m/s]
m1 = 0.0358	997.518	1499.2
m1 = 0.0404	997.561	1499.6
m1 = 0.0431	997.587	1499.8
m1 = 0.0492	997.643	1500.2
m1 = 0.0555	997.699	1500.7
m1 = 0.0696	997.825	1501.6
m1 = 0.0752	997.876	1502
m1 = 0.0921	998.027	1503.1
m1 = 0.1048	998.143	1504
m1 = 0.148	998.527	1507.1
m1 = 0.2329	999.277	1512.1
m1 = 0.2893	999.76	1515.5
m1 = 0.3426	1000.21	1518.5
m1 = 0.4292	1000.93	1523.1
m1 = 0.4826	1001.36	1525.7
m1 = 0.5834	1002.14	1530.3
m1 = 0.7128	1003.11	1535.5
m1 = 0.8299	1003.94	1539.5
m1 = 1.037	1005.27	1545

COC(=O)C(C)O (centres undefined) [methyl 2-hydroxypropanoate]
[1]
Conditions	mass density [kg/m3]	speed of sound [m/s]
–	1087.43	1338.8

COC(=O)C(C)O (centres undefined) [methyl 2-hydroxypropanoate] + O
[2]
Conditions	mass density [kg/m3]	speed of sound [m/s]
m1 = 0.0487	997.862	1499
m1 = 0.0568	997.968	1499.5
m1 = 0.0707	998.157	1500.4
m1 = 0.0956	998.501	1501.2
m1 = 0.1039	998.614	1501.6
m1 = 0.1117	998.722	1502
m1 = 0.1338	999.035	1503.1
m1 = 0.1539	999.294	1504
m1 = 0.223	1000.24	1507.8
m1 = 0.3212	1001.55	1511.7
m1 = 0.484	1003.64	1518.2
m1 = 0.7855	1007.52	1529
m1 = 0.9699	1009.78	1535.3
m1 = 1.168	1012.12	1542.1
m1 = 1.377	1014.5	1548.7
m1 = 1.56	1016.48	1554.2
m1 = 1.776	1018.7	1561.9
m1 = 1.938	1020.4	1566.9
m1 = 2.237	1023.27	1575.8
m1 = 2.632	1026.82	1588.2
m1 = 2.941	1029.45	1597
m1 = 3.322	1032.46	1606.5
m1 = 3.906	1036.62	1617.2

COC(=O)CCC(C)=O [methyl levulinate]
[1]
Conditions	mass density [kg/m3]	speed of sound [m/s]
–	1045.4	1386.2

COC(=O)CCC(C)=O [methyl levulinate] + O
[2]
Conditions	mass density [kg/m3]	speed of sound [m/s]
m1 = 0.0322	997.582	1499.2
m1 = 0.0375	997.646	1499.4
m1 = 0.0399	997.675	1499.7
m1 = 0.042	997.701	1499.7
m1 = 0.0537	997.774	1500
m1 = 0.0724	998.063	1500.9
m1 = 0.0737	998.08	1501
m1 = 0.1127	998.543	1503.2
m1 = 0.1571	999.079	1505.7
m1 = 0.1949	999.523	1507.7
m1 = 0.2491	1000.15	1510.6
m1 = 0.3297	1001.08	1514.6
m1 = 0.3905	1001.76	1517.5
m1 = 0.4721	1002.66	1521.3
m1 = 0.5562	1003.58	1525.1
m1 = 0.6293	1004.35	1527.8
m1 = 0.7107	1005.19	1530.9
m1 = 0.7782	1005.87	1533.4
m1 = 0.9597	1007.31	1539.2
m1 = 1.161	1008.76	1544.8

C=CC(=O)OC [methyl propenoate]
[1]
Conditions	mass density [kg/m3]	speed of sound [m/s]
–	949.174	1169

C=CC(=O)OC [methyl propenoate] + O
[2]
Conditions	mass density [kg/m3]	speed of sound [m/s]
m1 = 0.0393	997.315	1498.3
m1 = 0.0445	997.337	1498.7
m1 = 0.0475	997.348	1498.9
m1 = 0.0543	997.381	1499.1
m1 = 0.0631	997.409	1499.5
m1 = 0.0712	997.451	1499.9
m1 = 0.0962	997.547	1500.9
m1 = 0.1341	997.677	1502.1
m1 = 0.1473	997.72	1502.6
m1 = 0.1826	997.809	1503.8
m1 = 0.2485	998.068	1506.2
m1 = 0.3666	998.512	1510.6
m1 = 0.4288	998.73	1513.1
m1 = 0.5131	999.004	1516.7
